How the values were obtained:
Assay in all cases: In vitro antibacterial activity (MIC), agar dilution
[1] = system: STAPHYLOCOCCUS AUREUS ATCC 6538P; assay type: cell-based; details: S. aureus ATCC 6538P; BHI agar, 35-37 °C, 20-24 h
[2] = system: STAPHYLOCOCCUS AUREUS A5177; assay type: cell-based; details: S. aureus A5177; BHI agar, 35-37 °C, 20-24 h
[3] = system: STAPHYLOCOCCUS AUREUS A-5278; assay type: cell-based; details: S. aureus A-5278; BHI agar, 35-37 °C, 20-24 h
[4] = system: STAPHYLOCOCCUS AUREUS CMX 642A; assay type: cell-based; details: S. aureus CMX 642A; BHI agar, 35-37 °C, 20-24 h
[5] = system: STAPHYLOCOCCUS AUREUS NCTC10649M; assay type: cell-based; details: S. aureus NCTC10649M; BHI agar, 35-37 °C, 20-24 h
[6] = system: STAPHYLOCOCCUS EPIDERMIDIS 3519; assay type: cell-based; details: S. epidermidis 3519; BHI agar, 35-37 °C, 20-24 h
[7] = system: STREPTOCOCCUS BOVIS A-5169; assay type: cell-based; details: S. bovis A-5169; BHI agar, 35-37 °C, 20-24 h
STR[…] 508 = assay type: cell-based, Streptococcus agalactiae; details: S. agalactiae CMX 508; BHI agar, 35-37 °C, 20-24 h
Method: (§1) Representative compounds of the present invention were assayed in vitro for antibacterial activity as follows: Twelve petri dishes containing successive aqueous dilutions of the test compound mixed with 10 mL of sterilized Brain Heart Infusion (BHI) agar (Difco 0418-01-5) were prepared. Each plate was inoculated with 1:100 (or 1:10 for slow-growing strains, such as Micrococcus and Streptococcus) dilutions of up to 32 different microorganisms, using a Steers replicator block. The inoculated plates were incubated at 35°-37° C. for 20 to 24 hours. In addition, a control plate, using BHI agar containing no test compound, was prepared and incubated at the beginning and end of each test.
(§2) An additional plate containing a compound having known susceptibility patterns for the organisms being tested and belonging to the same antibiotic class as the test compound was also prepared and incubated as a further control, as well as to provide test-to-test comparability. Erythromycin A was used for this purpose.
(§3) After incubation, each plate was examined. The minimum inhibitory concentration (MIC) was defined as the lowest concentration of drug yielding no growth, a slight haze, or sparsely isolated colonies on the inoculum spot as compared to the growth control.

[8] = system: STREPTOCOCCUS PYOGENES 930; assay type: cell-based; details: S. pyogenes 930; BHI agar, 35-37 °C, 20-24 h
[9] = system: STREPTOCOCCUS PYOGENES PIU 2548; assay type: cell-based; details: S. pyogenes PIU 2548; BHI agar, 35-37 °C, 20-24 h
M[…] ATCC 4698 = assay type: cell-based, Micrococcus luteus; details: M. luteus ATCC 4698; BHI agar, 35-37 °C, 20-24 h
Method: as §1, §2, §3

M[…] ATCC 9341 = assay type: cell-based, Micrococcus luteus; details: M. luteus ATCC 9341; BHI agar, 35-37 °C, 20-24 h
Method: as §1, §2, §3

ESCHERICHIA COLI JUHL = assay type: cell-based; details: E. coli JUHL; BHI agar, 35-37 °C, 20-24 h
ESCHERICHIA COLI SS = assay type: cell-based; details: E. coli SS; BHI agar, 35-37 °C, 20-24 h
ESCHERICHIA COLI DC-2 = assay type: cell-based; details: E. coli DC-2; BHI agar, 35-37 °C, 20-24 h
ESCHERICHIA COLI H560 = assay type: cell-based; details: E. coli H560; BHI agar, 35-37 °C, 20-24 h
[10] = system: ENTEROBACTER AEROGENES ATCC 13048; assay type: cell-based; details: E. aerogenes ATCC 13048; BHI agar, 35-37 °C, 20-24 h
[11] = system: KLEBSIELLA PNEUMONIAE ATCC 8045; assay type: cell-based; details: K. pneumoniae ATCC 8045; BHI agar, 35-37 °C, 20-24 h
[12] = system: PROVIDENCIA STUARTII CMX 640; assay type: cell-based; details: P. stuartii CMX 640; BHI agar, 35-37 °C, 20-24 h
[13] = system: PSEUDOMONAS AERUGINOSA BMH10; assay type: cell-based; details: P. aeruginosa BMH10; BHI agar, 35-37 °C, 20-24 h
[14] = system: PSEUDOMONAS AERUGINOSA 5007; assay type: cell-based; details: P. aeruginosa 5007; BHI agar, 35-37 °C, 20-24 h
[15] = system: PSEUDOMONAS AERUGINOSA K799/WT; assay type: cell-based; details: P. aeruginosa K799/WT; BHI agar, 35-37 °C, 20-24 h
PSEUDOMONAS CEPACIA 296I = assay type: cell-based; details: P. cepacia 296I; BHI agar, 35-37 °C, 20-24 h
[16] = system: ACINETOBACTER CALCOACETICUS CMX 669; assay type: cell-based; details: A. calcoaceticus CMX 669; BHI agar, 35-37 °C, 20-24 h
[17] = system: PSEUDOMONAS AERUGINOSA DPHD-5263; assay type: cell-based; details: P. aeruginosa DPHD-5263; BHI agar, 35-37 °C, 20-24 h
[18] = system: NOCARDIA ARSTEROIDES ATCC 9970; assay type: cell-based; details: Nocardia ATCC 9970; BHI agar, 35-37 °C, 20-24 h

CC[C@H]1OC(=O)[C@H](C)C[C@H](C)[C@@H](O[C@@H]2O[C@H](C)C[C@H](N(C)C)[C@H]2O)[C@](C)(OC)C[C@@H](C)C(=O)[C@H](C)[C@@H](O)[C@]1(C)O [Ex. 1]
minimum inhibitory concentration (MIC) [1]: 25 | minimum inhibitory concentration (MIC) [2]: 25 | minimum inhibitory concentration (MIC) [3]: > 100 | minimum inhibitory concentration (MIC) [4]: 25 | minimum inhibitory concentration (MIC) [5]: 6.2 | minimum inhibitory concentration (MIC) [6]: 50 | minimum inhibitory concentration (MIC) [7]: 0.78 | minimum inhibitory concentration (MIC) (STR[…] 508): 3.1 | minimum inhibitory concentration (MIC) [8]: > 100 | minimum inhibitory concentration (MIC) [9]: 3.1 | minimum inhibitory concentration (MIC) (M[…] ATCC 4698): 6.2 | minimum inhibitory concentration (MIC) (M[…] ATCC 9341): 3.1 | minimum inhibitory concentration (MIC) (ESCHERICHIA COLI JUHL): > 100 | minimum inhibitory concentration (MIC) (ESCHERICHIA COLI SS): 0.78 | minimum inhibitory concentration (MIC) (ESCHERICHIA COLI DC-2): > 100 | minimum inhibitory concentration (MIC) (ESCHERICHIA COLI H560): > 100 | minimum inhibitory concentration (MIC) [10]: > 100 | minimum inhibitory concentration (MIC) [11]: > 100 | minimum inhibitory concentration (MIC) [12]: > 100 | minimum inhibitory concentration (MIC) [13]: > 100 | minimum inhibitory concentration (MIC) [14]: > 100 | minimum inhibitory concentration (MIC) [15]: > 100 | minimum inhibitory concentration (MIC) (PSEUDOMONAS CEPACIA 296I): > 100 | minimum inhibitory concentration (MIC) [16]: > 100 | minimum inhibitory concentration (MIC) [17]: > 100 | minimum inhibitory concentration (MIC) [18]: 1.56

CC[C@H]1OC(=O)[C@H](C)C[C@H](C)[C@@H](O[C@@H]2O[C@H](C)C[C@H](N(C)C)[C@H]2O)[C@](C)(OC)C[C@@H](C)C(=NO)[C@H](C)[C@@H](O)[C@]1(C)O [Ex. 2]
minimum inhibitory concentration (MIC) [2]: 25 | minimum inhibitory concentration (MIC) [3]: > 100 | minimum inhibitory concentration (MIC) [4]: 12.5 | minimum inhibitory concentration (MIC) [5]: 12.5 | minimum inhibitory concentration (MIC) [6]: 12.5 | minimum inhibitory concentration (MIC) [7]: 0.78 | minimum inhibitory concentration (MIC) (STR[…] 508): 0.78 | minimum inhibitory concentration (MIC) [8]: > 100 | minimum inhibitory concentration (MIC) [9]: 0.56 | minimum inhibitory concentration (MIC) (M[…] ATCC 4698): 3.1 | minimum inhibitory concentration (MIC) (M[…] ATCC 9341): 1.56 | minimum inhibitory concentration (MIC) (ESCHERICHIA COLI JUHL): > 100 | minimum inhibitory concentration (MIC) (ESCHERICHIA COLI SS): 0.78 | minimum inhibitory concentration (MIC) (ESCHERICHIA COLI DC-2): > 100 | minimum inhibitory concentration (MIC) (ESCHERICHIA COLI H560): > 100 | minimum inhibitory concentration (MIC) [10]: > 100 | minimum inhibitory concentration (MIC) [11]: > 100 | minimum inhibitory concentration (MIC) [12]: > 100 | minimum inhibitory concentration (MIC) [13]: > 100 | minimum inhibitory concentration (MIC) [14]: > 100 | minimum inhibitory concentration (MIC) [15]: > 100 | minimum inhibitory concentration (MIC) (PSEUDOMONAS CEPACIA 296I): > 100 | minimum inhibitory concentration (MIC) [16]: > 100 | minimum inhibitory concentration (MIC) [17]: > 100 | minimum inhibitory concentration (MIC) [18]: 0.02

CC[C@H]1OC(=O)[C@H](C)C[C@H](C)[C@@H](O[C@@H]2O[C@H](C)C[C@H](N(C)C)[C@H]2O)[C@](C)(OC)C[C@@H](C)C(=O)[C@H](C)[C@H]2OC(=O)O[C@@]21C [Ex. 3]
minimum inhibitory concentration (MIC) [1]: 6.2 | minimum inhibitory concentration (MIC) [2]: 3.1 | minimum inhibitory concentration (MIC) [3]: > 100 | minimum inhibitory concentration (MIC) [4]: 3.1 | minimum inhibitory concentration (MIC) [5]: 6.2 | minimum inhibitory concentration (MIC) [6]: 6.2 | minimum inhibitory concentration (MIC) [7]: 0.2 | minimum inhibitory concentration (MIC) (STR[…] 508): 0.2 | minimum inhibitory concentration (MIC) [8]: > 100 | minimum inhibitory concentration (MIC) [9]: 0.78 | minimum inhibitory concentration (MIC) (M[…] ATCC 4698): 0.78 | minimum inhibitory concentration (MIC) (M[…] ATCC 9341): 0.78 | minimum inhibitory concentration (MIC) (ESCHERICHIA COLI JUHL): > 100 | minimum inhibitory concentration (MIC) (ESCHERICHIA COLI SS): 0.78 | minimum inhibitory concentration (MIC) (ESCHERICHIA COLI DC-2): > 100 | minimum inhibitory concentration (MIC) (ESCHERICHIA COLI H560): > 100 | minimum inhibitory concentration (MIC) [10]: > 100 | minimum inhibitory concentration (MIC) [11]: > 100 | minimum inhibitory concentration (MIC) [12]: > 100 | minimum inhibitory concentration (MIC) [13]: > 100 | minimum inhibitory concentration (MIC) [14]: > 100 | minimum inhibitory concentration (MIC) [15]: > 100 | minimum inhibitory concentration (MIC) (PSEUDOMONAS CEPACIA 296I): > 100 | minimum inhibitory concentration (MIC) [16]: > 100 | minimum inhibitory concentration (MIC) [17]: > 100 | minimum inhibitory concentration (MIC) [18]: 0.2

CC[C@H]1OC(=O)[C@H](C)C[C@H](C)[C@@H](O[C@@H]2O[C@H](C)C[C@H](N(C)C)[C@H]2O)[C@](C)(OC)C[C@@H](C)C(=NOCOCCOC)[C@H](C)[C@@H](O)[C@]1(C)O [Ex. 8]
minimum inhibitory concentration (MIC) [1]: 0.1 | minimum inhibitory concentration (MIC) [2]: 1.56 | minimum inhibitory concentration (MIC) [3]: > 100 | minimum inhibitory concentration (MIC) [4]: 0.2 | minimum inhibitory concentration (MIC) [5]: 0.2 | minimum inhibitory concentration (MIC) [6]: 0.1 | minimum inhibitory concentration (MIC) [7]: 0.02 | minimum inhibitory concentration (MIC) (STR[…] 508): 0.02 | minimum inhibitory concentration (MIC) [8]: > 100 | minimum inhibitory concentration (MIC) [9]: 6.2 | minimum inhibitory concentration (MIC) (M[…] ATCC 4698): 0.2 | minimum inhibitory concentration (MIC) (M[…] ATCC 9341): 0.02 | minimum inhibitory concentration (MIC) (ESCHERICHIA COLI JUHL): 50 | minimum inhibitory concentration (MIC) (ESCHERICHIA COLI SS): 0.2 | minimum inhibitory concentration (MIC) (ESCHERICHIA COLI DC-2): 100 | minimum inhibitory concentration (MIC) (ESCHERICHIA COLI H560): 25 | minimum inhibitory concentration (MIC) [10]: > 100 | minimum inhibitory concentration (MIC) [11]: 25 | minimum inhibitory concentration (MIC) [12]: > 100 | minimum inhibitory concentration (MIC) [13]: 100 | minimum inhibitory concentration (MIC) [14]: > 100 | minimum inhibitory concentration (MIC) [15]: 100 | minimum inhibitory concentration (MIC) (PSEUDOMONAS CEPACIA 296I): > 100 | minimum inhibitory concentration (MIC) [16]: 12.5 | minimum inhibitory concentration (MIC) [17]: 100 | minimum inhibitory concentration (MIC) [18]: 0.05

Source: US5747466A, “3-deoxy-3-descladinose derivatives of erythromycins A and B” (Abbott Laboratories, priority 1996, dated 1998)
